Test results reported in publication PMC7844219, “Antifibrotic effect of novel neutrophil gelatinase-associated lipocalin inhibitors in cardiac and renal disease models” (Scientific Reports, 2021).

Experiments:
CKD mouse model = assay: Chronic kidney disease (CKD) mouse model, 5/6 (subtotal) nephrectomy; format: in vivo; set-up: Plasma creatinine level: unit not given here; conditions: CKD mice
Procedure: Animals were housed in a climate-controlled facility with a 12-h/12-h light/dark cycle and provided free access to food and water. Experiments were approved by the Darwin ethics committee of Sorbonne University, and conducted according to the INSERM animal care and use committee guidelines. The NGAL inhibitor GP1 was incorporated in regular chow (A04, Safe, Augy, France) at the dose of 625 mg GP1/kg of chow to achieve a low dose of 100 mg/kg/day of GP1 administered to the mice (based on a daily consumption of 4 g of chow).
LV hemodynamic was assessed as described previously. Briefly, mice were anesthetized (chloral 320 mg/kg, IP) and the carotid artery cannulated with a pressure–volume catheter (SPR839, Millar-Instruments, USA) and the catheter was advanced into the LV. Pressure–volume loops were obtained at baseline and during loading by gently occluding the abdominal aorta. LV end-systolic and end-diastolic pressures, dP/dtmax/min, LV relaxation constant tau and were measured/calculated with IOX software (EMKA, France). Systolic BP was measured by tail-cuff plethysmography in trained conscious mice at weeks 8–10 using a BP2000 Visitech model. BP was measured every day in the same room at the same hour for 5 consecutive days. The BP measurements (expressed as mmHg) presented are the averages of the last 3 days.
Chronic kidney disease (CKD) was induced by subtotal nephrectomy in 8-weeks-old male mice (25–26 g). All surgeries were performed under ketamine/xylazine anaesthesia. Briefly, the left kidney was exposed, and the upper and lower poles were tied with a poly-glycolic acid suture line. The peritoneum and skin were then sutured, and the animals were returned to their individual cages. After 1 week of recovery, the second kidney was removed. Removal of the second kidney represents T0. Sham mice were subjected to the same surgical procedures but neither renal poles nor the right kidney were removed. Mice were monitored for any sign of distress, and those observed to be experiencing severe, unrelievable pain were euthanized. Renal failure was assessed by the measure of plasma creatinine and urea with an automatic analyser (Konelab 20i; Thermo Fisher Scientific, Vernon Hills, IL) at weeks 4 and 8 post-Nx.
In the MI model, heart was harvested after hemodynamics and the atria and the ventricles were separated and weighed individually. A section of the left ventricle was immersed in Bouin fixative solution. In the CKD model, kidneys were harvested and a section was immersed in paraformaldehyde fixative solution. After fixation, the sections were dehydrated and embedded in paraffin. From these sections, 5-μm thick histologic slices were obtained and were stained with Sirius Red. For the measurement of cardiac or renal collagen density, slides were examined and photographed under a light microscope (Zeiss) at 40× magnification. Collagen content was calculated as percentage of collagen area to total area of the image. Perivascular collagen was excluded from the analysis. For tubular lesions scoring, kidney slides were stained with Periodic Acid-Schiff kit (Sigma) and the score of tubules with injury (epithelial cell necrosis and detachment, and tubular dilation) was analyzed blinded to the experimental groups.
Frozen tissues (kidneys, heart) were homogenized in TRIzol (Life Technologies, Illinois, USA) using FastPrep beads (MP-Bio, CA, USA). cDNAs were generated using the Superscript II reverse transcriptase kit (Invitrogen,NY, USA), and qPCR was performed as previously described. Briefly, transcript levels were analysed in a CFX396 apparatus (Biorad). The reactions were performed in duplicate for each sample using the IQ SYBR Green supermix Kit (Biorad,CA, USA). To normalize gene expression, the geometric mean of multiple internal reference genes were used (RS16, Ubc, Hprt and Gapdh for mice experiments). Values in control conditions were set as 1 for each gene. The sequences of the specific primers are detailed in Table S8.

[1] = system: isolated hepatocytes from swiss mice; assay: Hepatotoxicity, thiazolyl blue tetrazolium bromide (MTT) colorimetric assay; format: cell-based, mouse
Procedure: Several parameters have been evaluated to determine ADME-Tox profile of the compounds. Two specific toxicity assays have been performed to assess hepatoxicity and cardiotoxicity. Hepatotoxicity was evaluated in isolated hepatocytes from swiss mice and determined by the thiazolyl blue tetrazolium bromide colorimetric assay (sigma, St Louis, MO, USA). Cardiotoxicity was evaluated using the commercially available Predictor hERG fluorescence polarization kit (Thermo Fisher Scientific, Illinois, USA). Several absorption, distribution, metabolism, and excretion (ADME) assays have been carried out. The following experiments were undertaken: stability in human microsomes, binding to human plasma protein, and CYP3A4 inhibition assay (Vivid CYP3A4 assay, Thermo Fisher Scientific, Illinois, USA). Physico-chemical properties were also assessed such as aqueous solubility and chemical stability.

## CC(=O)c1cccc(S(=O)(=O)NCc2ccccc2-n2cccn2)c1 [GPZ614741]
CKD mouse model; GP1 100 mg/kg/day, two months, CKD untreated 11.5 ± 0.42
  KW/TL (kidney weight/tibia length): 11.3 ± 0.23 mg/mm
CKD mouse model; GP1 100 mg/kg/day, two months, CKD untreated 15.2 ± 0.36
  Plasma urea level: 16.74 ± 1.86 mM
CKD mouse model; GP1 100 mg/kg/day, two months, CKD untreated 21.5 ± 1.45
  Plasma creatinine level: 20.4 ± 1.54
CKD mouse model; GP1 100 mg/kg/day, two months, CKD untreated 139.3 ± 2.22
  SBP (systolic blood pressure): 122.1 ± 2.58 mmHg
CKD mouse model; kidney mRNA, Fig. 4C
  Increased expression of profibrotic markers (Col I, fibronectin, αSMA): blunted
CKD mouse model; one and two months after CKD induction
  Functional parameters: plasma levels of urea or creatinine, in words: no impact
CKD mouse model; two months of GP1
  Increase in blood pressure, in words: prevented the increase
CKD mouse model; two months of GP1, Fig. 4A
  Renal tubulointerstitial fibrosis (Sirius red): strong antifibrotic effect
CKD mouse model; × 3.1 in CKD vs. Sham, Fig. 4B
  Tubular injury (tubular lesion scoring, PAS): prevented
[1]
  Hepatotoxicity (MTT): > 0.1 mM
[1]; Table S5, MTT
  Hepatotoxicity: > 100 µM
